In patent publication US20240307374A1, “FORMULATION OF FURIN INHIBITOR FOR INHALATION” (BP ASSET V, INC., priority 2021, published 2024):
≈ marks a conversion by molar mass, not a printed value. Where “and” joins values, the source holds several entries; their conditions need not be identical. Equal entries are not always repeated. Structures can show the parent of a compound that is named as a salt.

Tests used:
Format in all cases: physicochemical
[1] = DVS (dynamic vapor sorption) moisture uptake
Protocol: (FIG. 5). Sample weight decreased rapidly when humidity decreased from 10% to 0%, which might be caused by loss of crystalline water.
DVS was measured via a SMS (Surface Measurement Systems) DVS Intrinsic.

[2] = Thermodynamic relationships study: slurry competition in acetone/H2O systems; conditions: RT
Protocol: Slurry competition was conducted in acetone/H2O systems with various water activities (0.0-1.0). […] Solids were separated and tested by XRPD.
(§1) To measure the solubility of freeform in acetone/H2O systems with various water activities, the above experiments were re-performed with addition of aw=0.3 acetone/H2O system. The suspension sample was centrifuged to obtain precipitate and supernatants. Solubility was tested for the supernatants after filtration, and isolated precipitate was tested by XRPD.
Solids were separated and tested by XRPD.

[3] = Solubility of freeform in acetone/H2O systems with various water activities; conditions: thermodynamic from solid
Protocol: as §1

[4] = Log D7.4 test, n-octanol/aqueous (pH=7.4) shake flask method
Protocol: The detailed procedure is summarized below. • 1. Pre-equilibrate n-octanol and aqueous buffer by adding 10 mL n-octanol and 10 mL aqueous buffer into a glass vial and keep it rolling for 24 h. The mutually saturated n-octanol and aqueous buffer are obtained after phase separation. • 2. Weigh approximately 1.0 mg sample into a 3-mL glass vial with 1.0 mL of saturated n-octanol inside (obtained in step 1 above) and accelerate dissolution by ultrasonication. • 3. Add 1.0 mL of complementary saturated aqueous buffer into the vial. • 4. Prepare samples in triplicate. Seal the glass vial and mix on a rotary mixer at 25° C. for 24 h. • 5. The phases are separated after rolling. • 6. The concentrations of the compound in each phase are determined by HPLC. Samples in n-octanol phase are diluted 10 times by adding 100 μL of sample solution and 900 µL of ACN/H2O (v/v, 3:1) diluent and mixed well. • 7. Distribution coefficient, referred to as Dow, is calculated as the concentration of the test compound (both ionized and un-ionized) in the n-octanol phase divided by the corresponding concentration in the aqueous phase.

[5] = Equilibrium solubility in pH buffers (3.0-8.0), 20% captisol and water; conditions: H2O, RT, 24 hrs
Protocol: Additional solids were added into the sample to generate suspension if clear solution obtained. The suspension was equilibrated via stirring (1000 rpm). The suspension was centrifuged to obtain precipitate and supernatants.
Solubility and pH were tested for the supernatants after filtration, and isolated precipitate was tested by XRPD.
(§2) • 1. pH=3.0 buffer (50 mM HCl+KCl): Weigh 365.39 mg KCl into a 100 mL volumetric flask (VF), and add 0.1 mL 1M HCl into the VF, and dilute to volume with water. • 2. pH=4.0 buffer (50 mM citrate): Weigh 56.74 mg citric acid and 60.18 mg trisodium citrate into a 10 mL volumetric flask, and dilute to volume with water. • 3. pH=5.0 buffer (50 mM citrate) Weigh 11.12 mg citric acid and 95.38 mg trisodium citrate into a 10 mL volumetric flask, and dilute to volume with water. • 4. pH=6.0 buffer (50 mM citrate) Weigh 11.04 mg citric acid and 130.2 mg trisodium citrate into a 10 mL volumetric flask, and dilute to volume with water. • 5. pH=6.0 buffer (50 mM phosphate) Weigh 8.7 mg Na2HPO4 and 52.6 mg NaH2PO4 into a 10 mL volumetric flask, and dilute to volume with water. • 6. pH=7.0 buffer (50 mM phosphate) Weigh 23.47 mg Na2HPO4 and 43.34 mg NaH2PO4into a 10 mL volumetric flask, and dilute to volume with water. • 7. pH=8.0 buffer (50 mM phosphate) Weigh 31.64 mg Na2HPO4 and 67.18 mg NaH2PO4into a 10 mL volumetric flask, and dilute to volume with water.

[6] = pKa test, spectrophotometric method (UV-metric pKa)
Protocol: (§3) The spectrophotometric method (UV-metric pKa) and potentiometric method (pH-metric pKa) were used for pKa test of Compound (I) freeform.
1. For UV-metric pKa, the pKa values were determined by monitoring the change in UV absorbance with pH as the compound undergoes ionization.
(§4) The psKa values were extrapolated to 0% organic content using the Yasuda-Shedlovsky extrapolation procedure for pKa values.

[7] = pKa test, potentiometric method (pH-metric pKa); conditions: MeOH cosolvent, Yasuda-Shedlovsky extrapolation
Protocol: as §3
2. For pH-metric pKa, the pKa values were determined from an examination of the shape of the resultant titration curves and fitting a suitable theoretical model for the compound's ionization behavior onto the titration data.
as §4

[8] = Equilibrium solubility in pH buffers (pH 4.0-6.0) with pH adjustment; conditions: pH = 4.0 buffer (50 mM citrate), RT, with pH adjustment
Protocol: In details, ˜5 mg of solids were suspended into 1 mL of each medium with dosing conc. at ˜5 mg/mL. Additional solids were added into the sample to generate suspension if clear solution was obtained. The suspension was equilibrated via stirring (1000 rpm) for 24 hours. The pH of the suspension was adjusted when the final pH shifted above 0.3, and the samples were stirred for another 1.5 hours after pH adjustment. The suspension was centrifuged to obtain precipitate and supernatants. Solubility, purity and pH were tested for the supernatants after filtration, and isolated precipitate was tested by XRPD.
as §2

[9] = Solubility profile of freeform Type D in citrate buffers; conditions: aqueous citrate buffer, aqueous buffer; citrate salt prepared in situ, summary statement; read-out: aqueous solubility
Protocol: Additional solids were added into the sample to generate suspension if clear solution was obtained. The suspension was equilibrated via stirring (1000 rpm) for 24 hours. The suspension was centrifuged to obtain precipitate and supernatants. Solubility and pH were tested for the supernatants after filtration, and the isolated precipitate was tested by XRPD.

[10] = Formulation solution stability experiments at 5° C.; conditions: thermodynamic from solid; for solubility at 2 days: aqueous buffer, 5° C., read-out: citrate solubility (supernatant concentration)
Protocol: The five formulations are shown in Table 7-2, and the characterization results are summarized in Example 7. The procedure is summarized below. • 1. […] Add about 149 mg citric acid into the volumetric flask of formulation 1/2/3/4. • 3. Add about 2037 mg of the corresponding sugar into the volumetric flask of formulation 2/3/4. […] Dilute to volume with water for formulation 1/2/3/4. • 5. Dilute to volume with pH=4.0 citrate/phosphate buffer for formulation 5. […] Sonicate the samples for about 2 mins, and filter with 0.45 µm filter to obtain a clear solution. • 7. Fill and seal about 0.7 mL solutions into 32 separate HPLC vials per each formulation and store under corresponding conditions.
The stability samples were stored at 5° C., 25° C., 40° C. and 60° C. for 28 days. After 1 day, 3 days, 7 days, 14 days and 28 days storage, the stability samples at 25° C., 40° C. and 60° C. were taken out for HPLC and pH tests. After 28 days storage, the stability samples at 5° C. were taken out for HPLC and pH tests.
Some of the stability samples at 5° C. became a suspension after storage for 37 days. The samples were then stirred (1000 rpm) at 5° C. for two days, resulting in all samples becoming a suspension. Three of the samples under each condition were characterized to determine the identity of precipitate, solubility of citrate salt at 5° C., and stability at 5° C. • 1. Sample 1 of formulations 1/2/3/4/5 after stirring was isolated, XPRD/^1H NMR of the solid was obtained, and purity/assay/concentration/pH of the supernatant were tested. • 2. Sample 2 of formulations 1/2/3/4/5 after stirring was stored at RT for about 1 hour, and the solid dissolved. Purity/assay/concentration of the solution was tested. • 3. Sample 3 of formulations 1/2/3/4/5 after stirring was sonicated at RT for about 2-3 mins, and the solid dissolved.

Compound: CC(=O)NCC1CCN(Cc2cc(Oc3ccc(N4CCN(CCC(=O)O)CC4)nc3)nc(-c3cc(Cl)cc(Cl)c3)c2)CC1 [Freeform Type B]
- Moisture Uptake (DVS) ([1]; 25° C., from 0% RH to 80% RH): 6.3%
- hygroscopicity ([1]; European pharmacopoeia 5.0 criteria, from DVS 0-80% RH at 25° C.): hygroscopic
- form change after DVS test (XRPD) ([1]; XRPD before and after DVS): No form change
- water activity (aw) at which the form was obtained [2]: below 0.2
- solubility at 2 days ([3]; acetone (aw 0), organic solvent or mixture, Acetone, aw 0, RT): 810 µg/mL (≈ 1.26 mM)
- solubility at 2 days ([3]; acetone/H2O (986:14), aw 0.2, organic solvent or mixture, Acetone/H2O (986:14), aw 0.2, RT): 3960 µg/mL (≈ 6.18 mM)

Compound: CC(=O)NCC1CCN(Cc2cc(Oc3ccc(N4CCN(CCC(=O)O)CC4)nc3)nc(-c3cc(Cl)cc(Cl)c3)c2)CC1 [Compound (I) freeform]
- logD at 24 h ([4]; n-octanol/aqueous buffer (pH 7.4), n-octanol/aqueous pH 7.4, three runs, read-out: Average of LogD7.4): 2.23
- LogD7.4 ([4]; n-octanol/aqueous pH 7.4, single runs 1-3): 2.24 and 2.23
- Average of LogD7.4 ([4]; n-octanol/aqueous pH 7.4, three runs): 2.23
- Final pH in aqueous phase ([4]; runs 1-3): 7.3
- Concentration, Oil (n-octanol phase) ([4]; shake flask, 25° C., 24 h, runs 1-3): 1.14 mg/mL and 1.10 mg/mL and 1.07 mg/mL
- Concentration, Aqueous ([4]; shake flask, pH 7.4 buffer, 25° C., 24 h, runs 1-3): 7 µg/mL and 6 µg/mL
- S: solubility [5]: 0.02 mg/mL
- pKa ([6]; 36.4% MeOH in water, MeOH concentration of 36.4%, read-out: psKa (apparent pKa 1), UV-metric): 1.84
- pKa ([6]; 48.2% MeOH in water, MeOH concentration of 48.2%, read-out: psKa (apparent pKa 1), UV-metric): 1.56
- pKa ([6]; 63.9% MeOH in water, MeOH concentration of 63.9%, read-out: psKa (apparent pKa 1), UV-metric): 1.27
- pKa ([6]; MeOH cosolvent, Yasuda-Shedlovsky extrapolation, psKa out of effective pH range 2-12, reference only, read-out: pKa 1, UV-metric): 2.21
- pKa ([6]; MeOH cosolvent, Yasuda-Shedlovsky extrapolation, read-out: pKa 2, UV-metric): 6.98
- pKa ([6]; MeOH cosolvent, Yasuda-Shedlovsky extrapolation, read-out: pKa 3, UV-metric): 7.68
- pKa ([7]; read-out: pKa 1, pH-metric): 3.41
- pKa ([7]; read-out: pKa 2, pH-metric): 6.99
- pKa ([7]; read-out: pKa 3, pH-metric): 7.56
- S: solubility [8]: > 36.9 mg/mL

Compound: CC(=O)NCC1CCN(Cc2cc(Oc3ccc(N4CCN(CCC(=O)O)CC4)nc3)nc(-c3cc(Cl)cc(Cl)c3)c2)CC1 [citrate salt]
- solubility at 24 h [9]: > 50 mg/mL
- solubility at 2 days ([10]; formulation solution with sugar (supernatant), presence of sugars, lowest value): 10.4 mg/mL
- solubility at 2 days ([10]; formulation solution without sugars (supernatant), without sugars): 16.9 mg/mL
- solubility ([10]; formulation solutions 1/2/3/4/5, aqueous buffer, rt, all solids dissolved once warmed up, read-out: solubility of citrate salt): > 20 mg/mL
